Like-named read-outs stand apart in the source and are kept apart here.
Tests used:
[1] = target: T1, CCK (gallbladder) receptor (Cavia porcellus, UniProt Q63931); assay: CCK-receptor bioassay, isolated guinea-pig gall-bladder strip preparations, CCK-8 as agonist; type: cell-based, male Dunkin-Hartley guinea-pigs; details: negative log10 of equilibrium dissociation constant, guinea-pig gall-bladder strips, CCK-8 agonist, test compound incubated for 60 minutes, 37° C; for Kb: read-out: pKB versus CCK (gallbladder) (converted)
T1 construct: Isolated, strip preparations were prepared from gall-bladders removed from male Dunkin-Hartley guinea-pigs; from tissue; host or cells: guinea-pig gall-bladder strips
T1 sequence (Q63931 1-430): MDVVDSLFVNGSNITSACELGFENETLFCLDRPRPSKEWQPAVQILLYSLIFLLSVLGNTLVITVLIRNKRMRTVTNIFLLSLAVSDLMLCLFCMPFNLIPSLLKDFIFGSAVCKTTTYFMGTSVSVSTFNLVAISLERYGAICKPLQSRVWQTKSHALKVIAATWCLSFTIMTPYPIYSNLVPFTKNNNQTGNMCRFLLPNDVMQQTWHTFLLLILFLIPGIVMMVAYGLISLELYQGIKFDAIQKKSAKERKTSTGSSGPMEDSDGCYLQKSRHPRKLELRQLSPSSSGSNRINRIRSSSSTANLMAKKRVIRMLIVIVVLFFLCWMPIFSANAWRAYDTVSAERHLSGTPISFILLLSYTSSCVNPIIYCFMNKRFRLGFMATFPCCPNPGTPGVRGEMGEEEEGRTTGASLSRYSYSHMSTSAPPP
Experimental: The compounds of the examples were assayed using a CCK-receptor bioassay as follows:
Isolated, strip preparations were prepared from gall-bladders removed from male Dunkin-Hartley guinea-pigs (250-500 g body weight) according to the method of La Morte, W. W., et al., J.P.E.T., 217, (3), 638-644 (1981).
The complete gall-bladder is removed and opened along the longitudinal axis. Strips measuring 3 mm in the longitudinal axis and 1 mm in the transverse axis are cut and then tied with cotton to stainless steel wires. The preparation is connected to a GRASS FTO3 isometric transducer under an initial loading tension of 1 g and is immersed in 20 mls of Krebs solution maintained at 37° C. and gassed with 95% O2 /5% CO2. The Krebs solution is as detailed above in connection with the fundus assay, except that the Ca^2+ concentration is decreased to 0.5 mM. After 30 mins the preparation is washed. Drug addition begins after an initial 90 min stabilisation period. Responses are measured as changes in tension from that immediately prior to any drug addition. Single cumulative agonist concentration-effect curves, using CCK-8 as agonist, are obtained on each preparation in the absence and presence of test compound which has been incubated for 60 minutes. The antagonist activity of the test compound is estimated and expressed as the negative logarithm (base 10) of the equilibrium dissociation constants (pKB) using the modifications of standard competitive analysis described by Black et al., Br. J. Pharmacol.,86,571-579, (1985) and Shankley et al., Br. J. Pharmacol.,94,264-274 (1988).

[2] = target: T2, CCKA (Cavia porcellus, UniProt Q63931); assay: CCKA binding assay, pancreas membranes, [125I]-CCK8(S); parameters: species or system male guinea-pigs (Dunkin Hartley)
T2 construct: The pancreatata were removed from male guinea-pigs (200-300 g; Dunkin Hartley); from tissue; host or cells: guinea-pig pancreas membranes
T2 sequence (Q63931 1-430): T1 sequence (Q63931 1-430)
Experimental: The compounds of the examples were also tested in a CCKA binding assay as follows:
The pancreatata were removed from male guinea-pigs (200-300 g; Dunkin Hartley) and placed in ice-cold HEPES buffer (pH 7.2@21°±3°). The pancreatata were homogenised in 40 ml ice-cold HEPES buffer using a polytron (Brinkmann, PT10, setting 10) 4×1 second. The homogenate was centrifuged at 39,800 g for 15 min at 4°. The supernatant was discarded and the pellet re-suspended using a Teflon-in-glass homogeniser in 20 volumes of fresh buffer and re-centrifuged as above. The final pellet was re-suspended using a Teflon-in-glass homogeniser to a tissue concentration of 1 mg ml^31 1 (original wet weight), and filtered through 500 μm pore-size Nytex mesh.
The membranes (400 μl; containing 0.375 μM PD134,308) are incubated for 150 minutes at 21°±3° in a final volume of 0.5 ml with HEPES buffer containing [^125 I]--CCK8 (S) (50 μl; 200 pM) and competing compound. Total and non-specific binding of [^125 I]--CCK8 (S) are defined using 50 μl of buffer and 50 μl of 100 nM L-364,718 respectively. The assay is terminated by rapid filtration through pre-soaked Whatman GF/B filters using a Brandell Cell Harvester. The filters were washed (3×3 ml) with ice-cold 50 mM Tris HCl (pH 7.4 at 4°) and bound radioactivity is determined by counting (1 min) in a gamma counter.

[3] = target: T3, CCKB receptor (Mus musculus, UniProt P56481); assay: CCKB radioligand binding assay in mouse cortical membranes, [125I] CCK-8S (selectivity testing); parameters: species or system male mice; details: [125I] CCK-8S 200 pM, 150 min at 21°; for Ki: pH 7.2, non-specific binding L-365,260, read-out: pKi CCKB (converted)
T3 construct: CCKB receptor in mouse cortical membranes; from tissue; host or cells: mouse cerebral cortex membranes (male mice, Charles River)
T3 sequence (P56481 1-453): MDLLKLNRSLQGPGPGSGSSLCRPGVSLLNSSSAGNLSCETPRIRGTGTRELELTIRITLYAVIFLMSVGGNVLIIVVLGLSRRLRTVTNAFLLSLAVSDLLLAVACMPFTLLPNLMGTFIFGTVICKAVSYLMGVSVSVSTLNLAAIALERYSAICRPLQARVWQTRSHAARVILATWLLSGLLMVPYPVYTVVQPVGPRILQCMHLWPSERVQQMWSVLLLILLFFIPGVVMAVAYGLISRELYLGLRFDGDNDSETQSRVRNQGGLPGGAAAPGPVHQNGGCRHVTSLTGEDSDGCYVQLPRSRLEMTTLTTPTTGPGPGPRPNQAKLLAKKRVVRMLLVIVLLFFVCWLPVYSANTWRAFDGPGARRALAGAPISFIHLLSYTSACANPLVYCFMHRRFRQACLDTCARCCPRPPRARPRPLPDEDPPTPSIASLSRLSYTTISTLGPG
Experimental: The compounds were assayed for selectivity with respect to the CCKB receptor in mouse cortical membranes by means of a radioligand binding assay. The procedure was as follows:
The whole brains from male mice (CDI 22-25 g; Charles River) were removed and placed in ice-cold buffer (pH 7.2 at 21°±3° C.) of the following composition (mM); 10 HEPES, 130 NaCl, 4.7 KCl, 5 MgCl2, 1 EDTA and containing 0.25 g. 1^-1 bacitracin.
The cortex was dissected, weighed and homogenised in 40 ml ice-cold buffer using a Teflon-in-glass homogeniser. The homogenate was centrifuged at 39,800 g for 20 min at 4° C., the supernatant discarded and the pellet resuspended by homogenisation in fresh buffer. The homogenate was recentrifuged (39,800 g; 20 min at 4° C.) and the final pellet was resuspended in HEPES buffer to give a tissue concentration of 2 mg ml^-1 (original wet weight).
The membranes (400 μl) were incubated for 150 min at 21°±3° C. in a final volume of 0.5 ml with HEPES buffer containing [^125 I] CCK-8S (0.05 ml; 200 pM NEN 2200Ci.mmol^-1) and competing compound. Total and non-specific binding of [^125 I] CCK-8S were defined using 0.05 ml of buffer and 0.05 ml of 10 mM L-365,260, respectively. The assay was terminated by rapid filtration through pre-soaked Whatman GF/B filters using a Brandell Cell harvester. The filters were washed (3×3 ml) with ice-cold 50 mM Tris-HCl (pH 7.4 at 4° C.) and bound radioactivity determined by counting (1 min.) in a gamma counter.

[4] = guinea-pig pancreas membranes, [125I]-CCK8(S) 200 pM, 0.375 μM PD134,308, 150 minutes at 21°, non-specific binding 100 nM L-364,718, read-out: pKi CCKλ (converted)

| SMILES | Kb [1] [nM] | Ki [2, 4] [nM] | Ki [3] [nM] | Ki [2] [nM] | pKB versus CCK (gallbladder) [1] | pKi CCKλ ([2]; guinea-pig pancreas membranes, [125I]-CCK8(S) 200 pM, 0.375 μM PD134,308, 150 minutes at 21°, non-specific binding 100 nM L-364,718) | pKi CCKB ([3]; pH 7.2, non-specific binding L-365,260) |
| --- | --- | --- | --- | --- | --- | --- | --- |
| CCCCCNC(=O)[C@H](CC(=O)O)NS(=O)(=O)c1ccc2ccccc2c1 [Example 5, 2-Naphthalenesulphonyl-L-aspartyl pentylamide] | 398 | 1000 | 100000 |  |  |  |  |
| CCCCCN(CCCCC)C(=O)[C@H](CC(=O)O)NS(=O)(=O)c1cccc2ccccc12 [Example 21, 1-Naphthalenesulphonyl-L-aspartyl dipentylamide] | 1260 | 2000 | 10000 |  |  |  |  |
| CCCCCOC(=O)[C@H](CC(=O)O)NS(=O)(=O)c1ccc2ccccc2c1 [Example 20, 2-Naphthalenesulphonyl-L-aspartyl pentyl ester] |  | 2000 | 20000 |  |  |  |  |
| CCCCCN(CCCCC)C(=O)[C@H](CC(=O)O)NS(=O)(=O)c1ccc2ccccc2c1 [Example 1, 2-Naphthalenesulphonyl-L-aspartyl dipentylamide] | 200 | 251 | 7940 |  |  |  |  |
| O=C(O)C[C@H](NS(=O)(=O)c1ccc2ccccc2c1)C(=O)N1CCC2(CC1)OCCO2 [Example 14, 2-Naphthalenesulphonyl-L-aspartyl 1,4-dioxa-8-azaspiro-[5.4]decylamide] |  |  |  | 10000 |  |  |  |
| CCCCCC(CCCCC)NC(=O)[C@H](CC(=O)O)NS(=O)(=O)c1ccc2ccccc2c1 [Example 9, 2-Naphthalenesulphonyl-L-aspartyl (1-pentyl)hexylamide] | 200 | 398 | 3980 |  |  |  |  |
| O=C(O)C[C@H](NS(=O)(=O)c1ccc2ccccc2c1)C(=O)NCCC12CC3CC(CC(C3)C1)C2 [Example 12, 2-Naphthalenesulphonyl-L-aspartyl 2-(1-adamantyl) ethylamide] | 50.1 | 126 | 7940 |  |  |  |  |
| CCCCCN(CCCOC)C(=O)[C@H](CC(=O)O)NS(=O)(=O)c1ccc2ccccc2c1 [Example 8, 2-Naphthalenesulphonyl-L-aspartyl N-(3-methoxypropyl)pentylamide] |  |  |  |  | 6.7 | 5.6 | 4.4 |
| CCCCCN(CCCCC)C(=O)[C@@H](CCC(=O)O)NS(=O)(=O)c1ccc2ccccc2c1 [Example 2, 2-Naphthalenesulphonyl D-glutamyl dipentylamide] | 1000 | 158 | 3980 |  |  |  |  |
| O=C(O)C[C@H](NS(=O)(=O)c1ccc2ccccc2c1)C(=O)NCCC1CCCCC1 [Example 11, 2-Naphthalenesulphonyl-L-aspartyl 2-cyclohexylethylamide] | 79.4 | 158 | 25100 |  |  |  |  |
| O=C(O)C[C@H](NS(=O)(=O)c1ccc2ccccc2c1)C(=O)NC1CCCCCCCCCCC1 [Example 16, 2-Naphthalenesulphonyl-L-aspartyl cyclododecylamide] | 79.4 | 39.8 | 10000 |  |  |  |  |
| CCCCCCN(C)C(=O)[C@H](CC(=O)O)NS(=O)(=O)c1ccc2ccccc2c1 [Example 7, 2-Naphthalenesulphonyl-L-aspartyl N-(methyl)hexylamide] | 316 | 3160 | 50100 |  |  |  |  |
| CCCCN(CCCC)C(=O)[C@H](CC(=O)O)NS(=O)(=O)c1ccc2ccccc2c1 [Example 3, 2-Naphthalenesulphonyl-L-aspartyl dibutylamide] | 631 | 1000 | 25100 |  |  |  |  |
| CCCCCN(CCCCC)C(=O)[C@@H](CC(=O)O)NS(=O)(=O)c1ccc2ccccc2c1 [Example 18, 2-Naphthalenesulphonyl-D-aspartyl dipentylamide] | 158 | 631 | 3160 |  |  |  |  |
| CCCCC(CC)CN(CC(CC)CCCC)C(=O)[C@H](CC(=O)O)NS(=O)(=O)c1ccc2ccccc2c1 (stereo partly drawn) [Example 17, 2-Naphthalenesulphonyl-L-aspartyl di(2-ethyl)hexylamide] |  | 1260 | 2000 |  |  |  |  |
| O=C(O)C[C@H](NS(=O)(=O)c1ccc2ccccc2c1)C(=O)NCC12CC3CC(CC(C3)C1)C2 [Example 10, 2-Naphthalenesulphonyl-L-aspartyl 1-adamantylmethylamide] | 63.1 | 50.1 | 6310 |  |  |  |  |
| CCCCCN(CCCCC)C(=O)[C@H](CCC(=O)O)NS(=O)(=O)c1ccc2ccccc2c1 [Example 19, 2-Naphthalenesulphonyl-L-glutamyl dipentylamide] | 631 | 1580 | 3160 |  |  |  |  |
| O=C(O)C[C@H](NS(=O)(=O)c1ccc2ccccc2c1)C(=O)N1CC2CCC(CC2)C1 [Example 15, 2-Naphthalenesulphonyl-L-aspartyl 3-azabicyclo-[3.2.2]nonylamide] |  | 10000 | 25100 |  |  |  |  |

— patent publication US5847125A, “Amino acid derivatives with anticholecystokinin activity” (James Black Foundation Limited, priority 1992, dated 1998)
